The results in this text go back to article PMC6321621, “Design of a Novel and Selective IRAK4 Inhibitor Using Topological Water Network Analysis and Molecular Modeling Approaches” (Molecules, 2018).

Holding throughout (type): biochemical
The target in one test is T1, IRAK4 (h) (Homo sapiens, UniProt Q9NWZ3).
T1 construct: purchased Eurofins Scientific Inc. Korea (contract assay service)
T1 sequence (Q9NWZ3 1-460): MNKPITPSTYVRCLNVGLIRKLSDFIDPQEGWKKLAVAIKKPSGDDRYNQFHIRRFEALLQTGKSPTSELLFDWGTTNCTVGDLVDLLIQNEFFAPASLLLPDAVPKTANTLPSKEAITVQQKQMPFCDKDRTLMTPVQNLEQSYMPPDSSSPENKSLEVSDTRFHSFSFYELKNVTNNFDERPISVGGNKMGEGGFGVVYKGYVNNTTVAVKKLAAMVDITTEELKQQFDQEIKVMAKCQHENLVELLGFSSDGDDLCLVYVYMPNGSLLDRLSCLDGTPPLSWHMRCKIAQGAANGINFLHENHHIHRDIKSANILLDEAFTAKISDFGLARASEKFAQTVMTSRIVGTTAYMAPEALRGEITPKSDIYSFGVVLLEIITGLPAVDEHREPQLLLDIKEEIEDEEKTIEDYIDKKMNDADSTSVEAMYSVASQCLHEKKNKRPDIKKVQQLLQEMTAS
In words: Enzymatic assay for IRAK4 (radiometric, Eurofins). Particulars: for IC50: in vitro enzymatic assay, duplicate, average, read-out: IC50 against IRAK4. How it is done:
(§1) Enzymatic assays for IRAK4, ASK1, ITK, and LYN were performed by Eurofins Scientific Inc. Korea (Brussels, Belgium). All assays were performed in duplicate, and the average IC50 value was reported.
(§2) IRAK4 (h) was incubated with 8 mM MOPS pH 7.0, 0.2 mM EDTA, 0.33 mg/mL myelin basic protein, 10 mM Mg acetate and [γ-^33P]-ATP (specific activity approx. 500 cpm/pmol, concentration as required). The reaction was initiated by the addition of a MgATP mix. After incubation for 40 min at room temperature, the reaction was stopped by the addition of 3% phosphoric acid solution. A total of 10 μL of the reaction was then spotted onto a P30 filtermat and washed three times for 5 min in 75 mM phosphoric acid, and once in methanol prior to drying and scintillation counting.

The next test addresses T2, ASK1 (h) (Homo sapiens, UniProt Q99683).
T2 construct: purchased Eurofins Scientific Inc. Korea (contract assay service)
T2 sequence (Q99683 1-1374): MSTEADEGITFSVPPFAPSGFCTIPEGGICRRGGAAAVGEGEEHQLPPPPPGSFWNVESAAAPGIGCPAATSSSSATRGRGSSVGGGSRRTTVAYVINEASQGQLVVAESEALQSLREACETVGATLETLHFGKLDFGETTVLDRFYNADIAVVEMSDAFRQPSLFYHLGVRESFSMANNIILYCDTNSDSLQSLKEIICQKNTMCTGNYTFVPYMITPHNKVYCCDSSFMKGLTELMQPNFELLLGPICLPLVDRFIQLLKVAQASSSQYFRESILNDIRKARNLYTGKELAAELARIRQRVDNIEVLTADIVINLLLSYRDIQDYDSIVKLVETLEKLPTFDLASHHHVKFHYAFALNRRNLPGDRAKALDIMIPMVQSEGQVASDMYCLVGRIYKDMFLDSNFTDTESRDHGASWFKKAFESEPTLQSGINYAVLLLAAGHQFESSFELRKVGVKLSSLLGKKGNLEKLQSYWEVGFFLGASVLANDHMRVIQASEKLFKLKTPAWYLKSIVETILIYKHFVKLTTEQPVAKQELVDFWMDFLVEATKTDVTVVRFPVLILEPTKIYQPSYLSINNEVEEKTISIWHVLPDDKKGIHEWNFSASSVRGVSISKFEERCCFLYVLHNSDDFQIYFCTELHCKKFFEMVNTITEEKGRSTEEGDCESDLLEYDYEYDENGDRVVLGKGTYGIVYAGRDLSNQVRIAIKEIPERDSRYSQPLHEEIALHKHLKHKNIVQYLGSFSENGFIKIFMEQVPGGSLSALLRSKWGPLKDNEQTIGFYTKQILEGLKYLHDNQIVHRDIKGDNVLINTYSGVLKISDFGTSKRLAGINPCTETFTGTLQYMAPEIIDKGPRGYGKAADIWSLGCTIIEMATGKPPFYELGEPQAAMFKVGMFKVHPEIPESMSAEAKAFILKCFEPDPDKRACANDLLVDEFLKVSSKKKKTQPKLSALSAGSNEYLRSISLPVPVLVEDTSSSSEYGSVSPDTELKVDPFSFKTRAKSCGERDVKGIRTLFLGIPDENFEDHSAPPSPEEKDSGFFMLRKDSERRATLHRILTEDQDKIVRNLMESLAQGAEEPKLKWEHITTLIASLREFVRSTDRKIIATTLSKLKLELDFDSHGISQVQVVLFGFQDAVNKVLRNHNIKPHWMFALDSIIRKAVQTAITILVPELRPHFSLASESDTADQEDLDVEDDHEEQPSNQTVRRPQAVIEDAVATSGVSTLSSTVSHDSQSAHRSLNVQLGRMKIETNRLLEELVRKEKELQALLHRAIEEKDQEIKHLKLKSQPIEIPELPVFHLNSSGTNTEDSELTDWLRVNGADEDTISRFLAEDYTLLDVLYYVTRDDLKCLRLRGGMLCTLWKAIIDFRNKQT
In words: Enzymatic assay for ASK1 (radiometric, Eurofins). Particulars: in vitro enzymatic assay, duplicate, average; read-out: IC50 against ASK1. How it is done: as §1
ASK1 (h) was incubated with 8 mM MOPS pH 7.0, 0.2 mM EDTA, 0.33 mg/mL myelin basic protein, 10 mM Mg acetate and [γ-^33P]-ATP (specific activity approx. 500 cpm/pmol, concentration as required). The reaction was initiated by the addition of the MgATP mix. After incubation for 40 min at room temperature, the reaction was stopped by the addition of 3% phosphoric acid solution. A total of 10 μL of the reaction was then spotted onto a P30 filtermat and washed three times for 5 min in 75 mM phosphoric acid, and once in methanol prior to drying and scintillation counting.

Another test concerns the target T3, ITK (h) (Homo sapiens, UniProt Q08881).
T3 construct: purchased Eurofins Scientific Inc. Korea (contract assay service)
T3 sequence (Q08881 1-620): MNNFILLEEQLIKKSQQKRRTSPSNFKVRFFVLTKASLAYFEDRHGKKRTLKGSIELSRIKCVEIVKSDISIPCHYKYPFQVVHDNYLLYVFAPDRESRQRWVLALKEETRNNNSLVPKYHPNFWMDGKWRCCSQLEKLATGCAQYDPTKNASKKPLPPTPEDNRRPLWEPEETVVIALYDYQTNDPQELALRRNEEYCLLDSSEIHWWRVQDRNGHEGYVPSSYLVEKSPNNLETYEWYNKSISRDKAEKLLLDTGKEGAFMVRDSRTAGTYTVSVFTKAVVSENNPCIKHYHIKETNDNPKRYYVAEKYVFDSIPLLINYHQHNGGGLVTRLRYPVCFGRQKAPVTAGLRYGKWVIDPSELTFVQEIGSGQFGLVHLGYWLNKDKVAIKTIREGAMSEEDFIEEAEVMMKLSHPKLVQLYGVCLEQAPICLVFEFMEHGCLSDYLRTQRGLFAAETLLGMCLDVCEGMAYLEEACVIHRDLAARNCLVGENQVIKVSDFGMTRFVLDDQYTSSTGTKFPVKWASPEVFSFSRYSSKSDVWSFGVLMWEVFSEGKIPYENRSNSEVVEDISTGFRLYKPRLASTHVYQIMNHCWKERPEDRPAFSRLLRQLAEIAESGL
Kind of test: Enzymatic assay for ITK (radiometric, Eurofins). The settings on record: in vitro enzymatic assay, duplicate, average; read-out: IC50 against ITK. How it is done: as §2, with “Enzymatic assays for IRAK4, ASK1, ITK, and LYN were performed by Eurofins Scientific Inc. Korea (Brussels, Belgium). All assays were performed in duplicate, and the average IC50 value was reported. ITK (h)” for “IRAK4 (h)”, “Mg acetate,” for “Mg acetate”, “of the” for “of a”

In another test the target is T4, LYN (h) (Homo sapiens, UniProt P07948).
T4 construct: purchased Eurofins Scientific Inc. Korea (contract assay service)
In words: Enzymatic assay for LYN (radiometric, Eurofins). Particulars: in vitro enzymatic assay, duplicate, average; read-out: IC50 against LYN. How it is done: Enzymatic assays for IRAK4, ASK1, ITK, and LYN were performed by Eurofins Scientific Inc. Korea (Brussels, Belgium). All assays were performed in duplicate, and the average IC50 value was reported. LYN (h) was incubated with 50 mM Tris pH 7.5, 0.1 mM EGTA, 0.1 mM Na3VO4, 0.1% […], 0.1 mg/mL poly(Glu, Tyr) 4:1, 10 mM Mg acetate, and [γ-^33P]-ATP (specific activity approx. 500 cpm/pmol, concentration as required). The reaction was initiated by the addition of the MgATP mix. After incubation for 40 min at room temperature, the reaction was stopped by the addition of 3% phosphoric acid solution. A total of 10 μL of the reaction was then spotted onto a Filtermat A and washed three times for 5 min in 75 mM phosphoric acid, and once in methanol prior to drying and scintillation counting.

T4 sequence (P07948 whole entry): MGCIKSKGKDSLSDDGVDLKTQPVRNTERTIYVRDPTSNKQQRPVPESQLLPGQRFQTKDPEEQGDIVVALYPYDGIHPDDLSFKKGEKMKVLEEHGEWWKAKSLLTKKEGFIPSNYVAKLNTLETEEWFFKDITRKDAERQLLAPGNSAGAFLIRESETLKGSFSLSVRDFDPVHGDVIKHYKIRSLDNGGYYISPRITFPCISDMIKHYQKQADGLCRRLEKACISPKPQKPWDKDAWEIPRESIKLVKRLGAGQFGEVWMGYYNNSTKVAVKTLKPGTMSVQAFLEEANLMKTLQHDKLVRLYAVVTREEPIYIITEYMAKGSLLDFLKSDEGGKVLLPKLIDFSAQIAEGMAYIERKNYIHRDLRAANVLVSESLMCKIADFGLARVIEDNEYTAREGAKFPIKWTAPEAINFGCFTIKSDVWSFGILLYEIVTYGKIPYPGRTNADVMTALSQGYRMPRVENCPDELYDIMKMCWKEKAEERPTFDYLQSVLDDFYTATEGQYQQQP

“4-(5-Benzylamino-imidazo[4,5-b]pyridine-1-yl)-benzonitrile [Compound 3]”: the “inhibition of IRAK4” value against IRAK4 (h) (at 10 μM) amounted to 97%. The IC50 on IRAK4 (h) came out at 0.158 µM.
As for `CC(C)(C)c1ccc(C(=O)Nc2cn3cc(-n4ccnc4)ccc3n2)cc1` [Compound 1], the IC50 turned out to be 0.187 µM on IRAK4 (h), 0.053 µM on ASK1 (h), 1.67 µM at ITK (h) and 2.39 µM on LYN (h).
For `COCc1nc2ccc(NC(=O)c3ccc(Br)o3)cc2[nH]1` [Compound 2], the IC50 on IRAK4 (h) came to 6.65 µM.

As usually defined, the IC50 is the concentration that inhibits the measured activity by half.
